Results: ChEMBL document CHEMBL4184200, “Benzimidazole design, synthesis, and docking to build selective carbonic anhydrase VA inhibitors” (Bioorg Med Chem, 2018)

Test: physchem

| Compound | pKa |
| --- | --- |
| NS(=O)(=O)c1cc(C(=O)Cn2cnc3ccccc32)ccc1Cl | 8.8 |
| Cc1nc2ccccc2n1CC(=O)c1ccc(Cl)c(S(N)(=O)=O)c1 | 8.8 |
| CCc1nc2ccccc2n1CC(=O)c1ccc(Cl)c(S(N)(=O)=O)c1 | 8.8 |
| NS(=O)(=O)c1cc(C(=O)CN2CCCc3ccccc32)ccc1Cl | 8.8 |
| NS(=O)(=O)c1cc(C(=O)Cn2ccnc2)ccc1Cl | 8.8 |
| NS(=O)(=O)c1cc(C(=O)Cn2ccnc2-c2ccccc2)ccc1Cl | 8.8 |
| Cc1cc2ncn(CC(=O)c3ccc(Cl)c(S(N)(=O)=O)c3)c2cc1C | 8.8 |
| NS(=O)(=O)c1cc(C(=O)Nn2cnc3ccccc32)c(SC2CCCCC2)cc1Cl | 8.8 |
| NS(=O)(=O)c1cc(C(=O)Cn2cnc3ccccc32)c(Cl)cc1Cl | 8.3 |
| Cc1cc2ncn(CC(=O)c3cc(S(N)(=O)=O)c(Cl)cc3Sc3ccccc3)c2cc1C | 8.8 |
| NS(=O)(=O)c1cc(C(=O)Nn2cnc3ccccc32)c(Cl)cc1Cl | 8.3 |
| CCc1nccn1CC(=O)c1ccc(Cl)c(S(N)(=O)=O)c1 | 8.8 |
| Cc1cc2ncn(CC(=O)c3cc(S(N)(=O)=O)c(Cl)cc3Cl)c2cc1C | 8.3 |
| NS(=O)(=O)c1cc(C(=O)Cn2ccnc2)c(Cl)cc1Cl | 8.3 |
| NS(=O)(=O)c1cc(C(=O)Cn2cnc3ccccc32)c(SCCc2ccccc2)cc1Cl | 8.8 |
| NS(=O)(=O)c1cc(C(=O)CN2CCc3ccccc32)ccc1Cl | 8.8 |
| NS(=O)(=O)c1cc(C(=O)Cn2cnc(-c3ccccc3)c2-c2ccccc2)ccc1Cl | 8.8 |
| NS(=O)(=O)c1cc(C(=O)Nn2cnc3ccccc32)c(Sc2ccccc2)cc1Cl | 8.8 |
| CC1Cc2ccccc2N1NC(=O)c1ccc(Cl)c(S(N)(=O)=O)c1 (centres undefined) [INDAPAMIDE] | 8.8 |
